Data: ChEMBL document CHEMBL3632493, “Design, synthesis and anticancer mechanistic studies of linked azoles” (Medchemcomm, 2015)
One block for each compound: values may come before it. Activity calls are given as the source filed them. The rule behind the calls is not given here.

Columns and labels:
HCT-116 [1] = assay: Anticancer activity against human HCT116 cells assessed as growth inhibition at 50 uM by CCK-8 assay; format: functional
HCT-116 [2] = assay: Anticancer activity against human HCT116 cells assessed as growth inhibition by CCK-8 assay; format: functional, cell-based
HCT-116 [3] = assay: Decrease in mitotic index in human HCT116 cells at 100 nM after 20 and 24 hrs by flow cytometry; format: functional, cell-based
HCT-116 [4] = assay: Induction of DNA damage in human HCT116 cells at G0/G1 phase at 100 nM after 24 hrs by gamma-H2AX-staining based-flow cytometry; format: functional, cell-based
HCT-116 [5] = assay: Induction of DNA damage in human HCT116 cells at G0/G1 phase at 30 uM after 24 hrs by gamma-H2AX-staining based-flow cytometry; format: functional, cell-based
HCT-116 [6] = assay: Induction of apoptosis in human HCT116 cells at 30 uM after 30 hrs by annexin-V/7-AAD staining based flow cytometry; format: functional
HCT-116 [7] = assay: Induction of DNA damage in human HCT116 cells at G0/G1 phase at 20 nM after 24 hrs by gamma-H2AX-staining based-flow cytometry; format: functional, cell-based
HCT-116 [8] = assay: Increase in mitotic index in human HCT116 cells at 20 nM after 20 and 24 hrs by flow cytometry; format: functional, cell-based
HCT-116 [9] = assay: Decrease in mitotic index in human HCT116 cells after 20 and 24 hrs by flow cytometry; format: functional, cell-based
HCT-116 [10] = assay: Induction of DNA damage in human HCT116 cells at G0/G1 phase at 20 and 30 uM after 24 hrs by gamma-H2AX-staining based-flow cytometry; format: functional, cell-based
HCT-116 [11] = assay: Cell cycle arrest in human HCT116 cells assessed as increase in number of cells at G2/M phase at 20 and 30 uM after 20 hrs by propidium-iodide staining based flow cytometry; format: functional
HCT-116 [12] = assay: Cell cycle arrest in human HCT116 cells assessed as decrease in number of cells at G0/G1 phase at 20 and 30 uM after 20 hrs by propidium-iodide staining based flow cytometry; format: functional
HCT-116 [13] = assay: Cell cycle arrest in human HCT116 cells assessed as decrease in number of cells at S phase at 20 and 30 uM after 20 hrs by propidium-iodide staining based flow cytometry; format: functional
HCT-116 [14] = assay: Decrease in mitotic index in human HCT116 cells at 30 and 50 uM by flow cytometry; format: functional, cell-based; conditions: TDE = time-dependent effect

Structure (SMILES): CCOC(=O)c1csc(-c2csc(-c3csc([C@@H](C)NC(=O)OC(C)(C)C)n3)n2)n1
inhibition (HCT-116 [1]): Active

Structure (SMILES): COc1cccc2c1C(=O)c1c(O)c3c(c(O)c1C2=O)C[C@@](O)(C(=O)CO)C[C@@H]3O[C@H]1C[C@H](N)[C@H](O)[C@H](C)O1
inhibition (HCT-116 [3]): Active | Activity (HCT-116 [4]): Active

Structure (SMILES): CC(=O)O[C@H]1C(=O)[C@@]2(C)[C@H]([C@H](OC(=O)c3ccccc3)[C@]3(O)C[C@H](OC(=O)[C@H](O)[C@@H](NC(=O)c4ccccc4)c4ccccc4)C(C)=C1C3(C)C)[C@]1(OC(C)=O)CO[C@@H]1C[C@@H]2O
Activity (HCT-116 [7]): Active | Activity (HCT-116 [8]): Active

Structure (SMILES): CCOC(=O)c1csc(-c2csc(-c3csc([C@H](C)NC(=O)OC(C)(C)C)n3)n2)n1
inhibition (HCT-116 [1]): Active

Continued, in another order:

IC50 (HCT-116 [2]): 38.1 µM
Structure (SMILES): C[C@H](NC(=O)OC(C)(C)C)c1nc(-c2nc(-c3nc(C(N)=S)cs3)cs2)cs1
inhibition at 50 µM (HCT-116 [1]): 70%

IC50 (HCT-116 [2]): 22.4 µM
Structure (SMILES): C[C@@H](NC(=O)OC(C)(C)C)c1nc(-c2nc(-c3nc(C(N)=O)cs3)cs2)cs1
Activity (HCT-116 [5]): Active | inhibition at 50 µM (HCT-116 [1]): 70% | Activity (HCT-116 [6]): 30%

IC50 (HCT-116 [2]): 45.2 µM
Structure (SMILES): C[C@@H](NC(=O)OC(C)(C)C)c1nc(-c2nc(-c3nc(C(N)=S)cs3)cs2)cs1
inhibition at 50 µM (HCT-116 [1]): 70%

IC50 (HCT-116 [2]): 7.6 µM
Structure (SMILES): C[C@H](NC(=O)OC(C)(C)C)c1nc(-c2nc(-c3nc(C(N)=O)cs3)cs2)cs1
inhibition (HCT-116 [9]): Dose-dependent effect | Activity (HCT-116 [10]): Active | Activity (HCT-116 [11]): Active | inhibition at 50 µM (HCT-116 [1]): 70% | Activity (HCT-116 [6]): 60% | Activity (HCT-116 [12]): Active | Activity (HCT-116 [13]): Active | inhibition (HCT-116 [14]): tde
